From the CheMixHub viscosity set

Experiment: xn = mol fraction of the nth substance listed

Cc1cccc(C)n1 + CO
101 kPa
Settings	viscosity [mPa·s]
298.01 K, x1 = 0.1115	0.705
298.12 K, x1 = 0.2763	0.857
298.18 K, x1 = 0.4001	0.912
298.18 K, x1 = 0.5482	0.909
298.19 K, x1 = 0.8449	0.846
298.24 K, x1 = 0.2399	0.823
298.29 K, x1 = 0.7013	0.891
303.08 K, x1 = 0.1115	0.655
303.15 K, x1 = 0.8449	0.789
303.17 K, x1 = 0.2763	0.793
303.21 K, x1 = 0.2399	0.763
303.21 K, x1 = 0.4001	0.85
303.24 K, x1 = 0.7013	0.828
303.25 K, x1 = 0.5482	0.84
308.08 K, x1 = 0.1115	0.613
308.18 K, x1 = 0.8449	0.737
308.19 K, x1 = 0.2763	0.739
308.24 K, x1 = 0.5482	0.782
308.25 K, x1 = 0.2399	0.71
308.26 K, x1 = 0.7013	0.774
312.95 K, x1 = 0.2399	0.662
313.15 K, x1 = 0.1115	0.572
313.22 K, x1 = 0.8449	0.691
313.25 K, x1 = 0.2763	0.688
313.27 K, x1 = 0.4001	0.729
313.33 K, x1 = 0.7013	0.725
318.22 K, x1 = 0.1115	0.535
318.28 K, x1 = 0.8449	0.65
318.32 K, x1 = 0.2399	0.617
318.33 K, x1 = 0.2763	0.643
318.33 K, x1 = 0.4001	0.682
318.35 K, x1 = 0.5482	0.688
318.38 K, x1 = 0.7013	0.68

CC(=O)c1ccccc1 + COC(=O)c1ccccc1
viscosity [mPa·s], 101 kPa
Settings	x2 = 0.0946	x2 = 0.1898	x2 = 0.2861	x2 = 0.386	x2 = 0.4823	x2 = 0.5819	x2 = 0.6825	x2 = 0.7877	x2 = 0.8917
303.15 K	1.527	1.558	1.588	1.611	1.608	1.606	1.6	1.593	1.614
313.15 K	1.285	1.307	1.329	1.348	1.341	1.334	1.322	1.315	1.329

CCC(C)C(C)C (configuration not stated) + COC(C)(C)C
298.15 K, 101.33 kPa
Settings	viscosity [mPa·s]
x2 = 0.0983	0.3824
x2 = 0.1999	0.3758
x2 = 0.2986	0.3693
x2 = 0.3972	0.363
x2 = 0.4975	0.3572
x2 = 0.5979	0.3519
x2 = 0.7006	0.3469
x2 = 0.797	0.3423
x2 = 0.8949	0.3387

C1COCO1 + COCCO
298.15 K, 101 kPa
Settings	viscosity [mPa·s]
x1 = 0.1024	1.345
x1 = 0.2043	1.171
x1 = 0.3057	1.032
x1 = 0.4065	0.9197
x1 = 0.5067	0.8293
x1 = 0.6064	0.7564
x1 = 0.7056	0.6979
x1 = 0.8043	0.6517
x1 = 0.9024	0.6155

CCC(O)CC + COc1ccccc1
viscosity [mPa·s], 101.33 kPa
Settings	x2 = 0.1007	x2 = 0.2006	x2 = 0.3001	x2 = 0.3996	x2 = 0.5	x2 = 0.5999	x2 = 0.6973	x2 = 0.7998	x2 = 0.8971
303.15 K	2.787	2.043	1.547	1.238	1.062	0.976	0.941	0.927	0.917
313.15 K	1.745	1.355	1.093	0.938	0.863	0.835	0.824	0.811	0.793
323.15 K	1.261	1.041	0.888	0.795	0.747	0.729	0.719	0.709	0.697

O=S(Cl)Cl + Cc1cc(C)cc(C)c1
298.15 K, 101 kPa
Settings	viscosity [mPa·s]
x1 = 0.234	0.685
x1 = 0.314	0.6908
x1 = 0.432	0.6952
x1 = 0.571	0.6939
x1 = 0.743	0.677
x1 = 0.9	0.6495
